What was measured:
[1] = test system: Polθ foci formation in RPE-1 cells expressing GFP–Polθ; experiment: siRNA screen for ionizing radiation-induced Polθ foci formation; type: cell-based, human; conditions: 10 nM siRNA, 72 h, then 5 Gy, 2 h; cells with at least 5 Polθ foci; median RZ score of the three siRNAs, three replicate experiments
Description: The Human DDR siRNA library comprising 1,746 single siRNAs representing 582 human genes (3 siRNAs per gene) was obtained from ThermoFisher Scientific (A30089). For controls, siRNAs targeting GL2, kinesin family member 11 (KIF11) and GM130 were used to assess transfection efficacy and induced cell toxicity. FANCD2 siRNA ([…]dT, defined as FANCD2-ctrl in Supplementary Table 1) was used as a positive control inhibiting Polθ foci formation. RPE-1 cells expressing GFP–Polθ (250 cells per well in 384-well plates) were grown overnight. siRNAs were incubated 15 min with 0.05 μl Interferin reagent (Polyplus transfection) and Opti-MEM (ThermoFisher Scientific) prior to being transferred into each 384-well plate wells, to obtain a 10 nM final concentration. Cells were irradiated 72 h after transfection, at a dose of 5 Gy (226 s) with the CIXD irradiator (RadeXp platform, Institut Curie) and incubated at 37 °C, 5% CO2 for 2 h. […] Polθ was then identified as organelles in the nuclei area and quantified by the average intensity of pixels within the defined organelles region. […] Corrected values were normalized as follows: sample median and median absolute deviation (MAD) were calculated from the Interferin-treated population of each internal plate data points (named as Ref pop) and used to compute robust Z-scores[59] […]

Polθ foci in mitosis = Polθ foci in mitosis after siRNA; type: cell-based, human; conditions: siRNA knockdown
Description: (§1) Transfection of siRNA oligonucleotides (Eurofins) was performed using Lipofectamine RNAiMax (ThermoFisher Scientific) following the manufacturer’s instructions.
(§2) Cells grown on coverslips were fixed for 15 min in 2% paraformaldehyde, permeabilized for 10 min in 0.5% Triton X-100, blocked for 30 min in BSA 5%, 0.1% Triton X-100, immunostained for 1 h with primary antibodies, 45 min with secondary antibodies (Highly Cross-Adsorbed Secondary Antibodies Alexa Fluor, ThermoFisher Scientific) and mounted Vectashield mounting medium containing DAPI (Vector Laboratories). The same protocol was applied to mitotic cells, which were collected by shake off and centrifuged onto glass slides using a cytospin centrifuge (400g, 5 min) before fixation. […] Biotin azide-EdU click-it reaction was performed after fixation and permeabilization by incubating cells with a mix of Picolyl biotin, CuSO4, THPTA (Jena Bioscience) and sodium ascorbate in PBS for 30 min in the dark followed by an incubation with streptavidin conjugated Alex fluor 647 antibody (ThermoFisher Scientific) during 1 h at room temperature. Images were taken at 60× or 100× magnification using Upright Spinning disk Confocal Microscope (Roper/Zeiss) or at 40× magnification using DeltaVision (Deconvolution) Image Restoration Microscope. […] Images were analysed using the Fiji software. […]

Polθ foci in interphase = Polθ foci in interphase after siRNA; type: cell-based, human; conditions: siRNA knockdown
Description: as §1, §2

PLK1 [2] = experiment: In vitro kinase assay of Polθ immunoprecipitates with recombinant PLK1; type: biochemical; conditions: GFP–Polθ immunoprecipitate, recombinant PLK1 50, 100 or 500 ng, 5 μM ATP, [γ-32P]ATP, 30 min, 30 °C, autoradiography
Description: Immunoprecipitates of GFP–Polθ (2 h GFP trap at 4 °C, followed by 2 washes with 150 mM NaCl buffer and 1 wash with 300 mM NaCl) or 1.2 μg of RBER-CDC25tide (Reaction Biology, 0590-0000-1) were resuspended in 30 μl kinase buffer (Cell Signaling, 9802) containing 50, 100 or 500 ng of recombinant PLK1 (Reaction Biology, 0183-0000-1) and 5 μM ATP and 5 μCi [γ-^32P]ATP. After incubation for 30 min at 30 °C, reactions were stopped on ice by the addition of 2× Laemmli buffer and boiling for 5 min at 95 °C. Samples were separated on a 4–8% Tris-acetate gel (or 10% SDS–PAGE for the CDC25 positive control), and phosphorylated ^32P-Polθ and CDC25 were detected by autoradiography.

PLK1 [3] = experiment: Real-time NMR phosphorylation of Polθ fragments by PLK1; type: biochemical; conditions: SOFAST HMQC series, 298 K, 8 h, PLK1 1:200
Description: (§3) The NMR experiments were performed on the Polθ protein fragments (E1424–Q1503) and (E1540–S1660), either ^15N- or ^15N,^13C-labelled, and dissolved in the NMR buffer (with in addition 7% v/v D2O and EDTA-free Protease Inhibitor Cocktail 1× (Roche)). Most experiments were recorded on a 700 MHz Bruker ADVANCE NEO spectrometer equipped with a triple resonance cryogenically cooled probe. ^1HN, ^13Cα, ^13Cβ, ^13CO and ^15N resonance frequencies of the non-phosphorylated fragments were assigned at 283 K using 2D ^1H–^15N SOFAST HMQC, 3D HNCA, 3D HNCACB, 3D CBCA(CO)NH, 3D HNCO, 3D HN(CA)CO and 3D HN(CA)NNH experiments. All 3D experiments were recorded using non uniform sampling (NUS: 40–50%). To monitor phosphorylation by PLK1, either ^15N- or ^15N,^13C-labelled Polθ protein fragments were mixed with PLK1, and a series of 16 2D NMR ^1H-^15N SOFAST HMQC experiments were recorded at 298 K during 8 h, each experiment being a 1,536 × 160 dataset acquired with 80 scans during 30 min[50]. The temperature was then set to 283 K and 2D ^1H–^15N SOFAST HMQC, 3D HNCA, 3D HNCACB, 3D CBCA(CO)NH and 3D HN(CA)NNH experiments were recorded, in order to assign the resonance frequencies of the phosphorylated fragments (here again with NUS at 40–50%). […]

TOPBP1 = conditions: peptide on streptavidin beads, HeLa nuclear extract 350 μg, 2 h room temperature, immunoblot
Description: Peptides were coupled to streptavidin beads in 150 mM NaCl on a rotating wheel at room temperature, for 1 h. Beads were washed twice in 150 mM NaCl prior to use in pull-down assays. Nuclear extracts from HeLa cells (350 μg) or 2 ml of bacteria protein extracts were incubated with 1 nmol of desired streptavidin beads-coupled peptide, on a rotating wheel, for 2 h, at room temperature. After incubation, beads were washed three times using 150 mM NaCl RIPA buffer, and twice using 300 mM NaCl before elution in 2× Laemmli buffer. All buffers used were supplemented with phosphatase and protease inhibitors. Eluted proteins were analysed by SDS–PAGE to identify peptide partners. The same amount of peptides used for pull-downs was loaded into a separate gel, and biotin signal was detected in the migration front. […] 1628-P/S1635-P: biotin-[sequence]pSFIWSGAp[sequence]. S1628/S1635: biotin-[sequence].

[4] = biological target: T1, TOPBP1 BRCT7-8 domain, TOPBP1 fragment (1264–1493) (UniProt Q92547 1264-1493); experiment: NMR titration; 2D 1H-15N spectra of 15N-labelled Polθ (E1424-Q1503), phosphorylated or not, without and with TOPBP1 BRCT7-8 at a 1:0.5 ratio; 25 mM HEPES, 50 mM NaCl, pH 7; conditions: both partners purified
T1 construct: source: bacteria protein extracts named for the peptide pull-down
T1 sequence (Q92547 1264-1493): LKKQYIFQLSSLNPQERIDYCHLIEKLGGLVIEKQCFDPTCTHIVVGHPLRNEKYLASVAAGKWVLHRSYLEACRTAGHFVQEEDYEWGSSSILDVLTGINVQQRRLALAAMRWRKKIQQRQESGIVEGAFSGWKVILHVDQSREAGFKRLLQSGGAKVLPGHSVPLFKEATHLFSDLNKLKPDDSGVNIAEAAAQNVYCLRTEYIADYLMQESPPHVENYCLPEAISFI

TOPBP1 BRCT7-8 = biological target: T2, TOPBP1 BRCT7-8 (Homo sapiens, UniProt Q92547); experiment: 2D NMR of 15N-labelled Polθ fragment with TOPBP1 BRCT7-8; type: binding; conditions: 2D 1H–15N, Polθ fragment:BRCT7-8 1:0.5, 25 mM HEPES, 50 mM NaCl, pH 7
T2 construct: GST (N); TEV cleavage site; made in house; host or cells: E. coli BL21 (DE3) Star
T2 sequence (Q92547 1264-1493): as above
Description: as §3

In the case of “GUCUCCCAGAAGACAGUGAdTdT (sense GUCUCCCAGAAGACAGUGATT; chemistry not fully specified) [MDC1, siRNA targeting MDC1]”, the “Robust z score_corrected_Cells multi-foci_MultiFoci (%)” value [1] is reported as -2.42, the “Polθ foci formation in mitosis” value (Polθ foci in mitosis) is reported as “prevented the formation of Polθ foci in both interphase and mitosis” and the “Polθ foci formation in interphase” value (Polθ foci in interphase) is reported as “prevented the formation of Polθ foci in both interphase and mitosis”.

In the case of Polθ: DNA polymerase theta, the “phosphorylation of Polθ by PLK1” value (PLK1 [2]) is reported as “direct phosphorylation of Polθ by PLK1” and the “kinetics of Polθ phosphorylation by PLK1” value (PLK1 [3]) is reported as “fast kinetics of Polθ phosphorylation”.

With “ACAAAUACAUGGCUGGUUAdTdT (guide ACAAAUACAUGGCUGGUUATT; chemistry not fully specified) [TOPBP1, siRNA targeting TOPBP1]” the “Polθ foci formation in mitosis” value (Polθ foci in mitosis) was “suppressed Polθ foci (and filament) formation only in mitosis”.

“biotin-GSGTRQNHpSFIWSGApSFDLSPGLQRILDKVSS [1628-P/S1635-P]” was tested, and the “interaction with TOPBP1” value (TOPBP1) was “did not interact with TOPBP1”.

B1: phosphorylated recombinant Polθ fragment (E1424–Q1503) (domain or fragment, human, UniProt O75417 1424-1503, looked up)
chain: EENGLFLKKNEVSVTDSQLNSFLQGYQTQETVKPVILLIPQKRTPTGVEGECLPVPETSLNMSDSLLFDSFSDDYLVKEQ
modifications: 15N-labelled; phosphorylated by PLK1, sites include S1482, S1486, S1488 and S1493
notes: DNA polymerase theta (Polθ), human, residues E1424-Q1503; also called phosphorylated Polθ E1424–Q1503 fragment; Polθ protein fragment F1 (phosphorylated); source: E. coli BL21 (DE3) Star, purified (HisTrap, TEV cleavage, reverse HisTrap), then phosphorylated with PLK1; not shown: GB1, C-terminal, cleaved; His6, C-terminal, cleaved
B1: binds [4].

B2: phosphorylated recombinant Polθ fragment (E1424–Q1503): recombinant Polθ fragment E1424–Q1503 phosphorylated by PLK1 (protein)
chain: EENGLFLKKNEVSVTDSQLNSFLQGYQTQETVKPVILLIPQKRTPTGVEGECLPVPETSLNMSDSLLFDSFSDDYLVKEQ
modifications: 15N-labelled; phosphorylated by PLK1, sites include S1482, S1486, S1488 and S1493; left off: GB1, C-terminal, cleaved | His6, C-terminal, cleaved
In the case of B2, the “NMR signals lost upon addition of TOPBP1 BRCT7-8” value (TOPBP1 BRCT7-8) is reported as “NMR signals corresponding to the Polθ region (p-S1482–L1499) were lost upon addition of BRCT7-8”.

B3: non-phosphorylated recombinant Polθ (E1424–Q1503): recombinant Polθ fragment E1424–Q1503 from E. coli (protein, UniProt O75417 1424-1503, looked up, fragment)
chain: EENGLFLKKNEVSVTDSQLNSFLQGYQTQETVKPVILLIPQKRTPTGVEGECLPVPETSLNMSDSLLFDSFSDDYLVKEQ
In the case of B3, the “NMR signals lost upon addition of TOPBP1 BRCT7-8” value (TOPBP1 BRCT7-8) is reported as “only a few NMR peaks were lost upon addition of TOPBP1 BRCT7-8”.

B4: non-phosphorylated recombinant Polθ fragment (E1424–Q1503) (domain or fragment, human, UniProt O75417 1424-1503, looked up)
chain: EENGLFLKKNEVSVTDSQLNSFLQGYQTQETVKPVILLIPQKRTPTGVEGECLPVPETSLNMSDSLLFDSFSDDYLVKEQ
modifications: 15N-labelled
notes: DNA polymerase theta (Polθ), human, residues E1424-Q1503; also called non-phosphorylated Polθ fragment from Glu1424 to Gln1503; Polθ protein fragment F1; source: E. coli BL21 (DE3) Star, purified (HisTrap, TEV cleavage, reverse HisTrap); not shown: GB1, C-terminal, cleaved; His6, C-terminal, cleaved
B4: binds [4].

From article PMC10499603, “Polθ is phosphorylated by PLK1 to repair double-strand breaks in mitosis” (Nature, 2023)
